In the NIST ThermoML archive (doi:10.1016/j.jct.2004.07.012):
± gives the expanded uncertainty stated by the source.

Conditions: 298.15 K; 101.33 kPa; Liquid

Compound	mass density
CCCO [propan-1-ol]	799.74 ± 0.49 kg/m3
ClCCBr [1-bromo-2-chloroethane]	1727.01 ± 2.2 kg/m3
ClCCCl [1,2-dichloroethane]	1246.34 ± 0.6 kg/m3
ClCBr [bromochloromethane]	1924.55 ± 1.9 kg/m3
BrCBr [dibromomethane]	2478.36 ± 3.1 kg/m3
